According to US6288104A, “Pharmaceutical compositions containing mesembrine and related compounds” (African Natural Health CC, priority 1996, dated 2001):
Where “and” joins values, the source holds several entries; their conditions need not be identical. Identical values can stand only once. Entries after “also recorded” stand apart in the source; their conditions may differ.

Tests used:
Serotonin-uptake = Serotonin-uptake (Homo sapiens, UniProt P31645); assay: Novascreen serotonin-uptake assay, with reference to imipramine HCl; format: biochemical; settings: for serotonin-uptake inhibition (in words): FIGS. 1 to 4, comparison with imipramine HCl
Source text: FIG. 2 is a graph for a serotonin-uptake assay of a whole plant extract of a plant from the family Mesembryanthemaceae, identified by the code number 18639, as well as some comparisons with the known serotonin-uptake inhibitor imipramine HCl;
FIG. 3 is a graph for a serotonin-uptake assay for mesembranol, identified by the code number 18623, as well as some comparisons with the known serotonin-uptake inhibitor imipramine HCl; and
FIG. 4 is a graph for a serotonin-uptake assay for mesembranone, identified by the code number 18622, as well as some comparisons with the known serotonin-uptake inhibitor imipramine HCl.
In addition, the whole plant extract of Sceletium N.E.Br., mesembranol and mesembranone were screened for biological activity by the National Institute of Mental Health in the United States of America through the contract with Novascreen.

GABA B = assay: Novascreen GABA B receptor screen; format: binding; settings: Average: N = 2; Concentration 5,0E1
healthy adult volunteers = assay: Study 2: single sublingual dose of pure (-)-mesembrine in healthy adult volunteers; format: in vivo; settings: single 200 microgram sublingual dose in 1 ml of 60% ethanol
Protocol: Various […] studies of the effects of the compounds of the invention were carried out in adult volunteers as follows:
Study 2. N=2 Healthy Adult Volunteers, All Health Professionals Sep. 21, 1996.

Sequence of Serotonin-uptake (P31645 whole entry): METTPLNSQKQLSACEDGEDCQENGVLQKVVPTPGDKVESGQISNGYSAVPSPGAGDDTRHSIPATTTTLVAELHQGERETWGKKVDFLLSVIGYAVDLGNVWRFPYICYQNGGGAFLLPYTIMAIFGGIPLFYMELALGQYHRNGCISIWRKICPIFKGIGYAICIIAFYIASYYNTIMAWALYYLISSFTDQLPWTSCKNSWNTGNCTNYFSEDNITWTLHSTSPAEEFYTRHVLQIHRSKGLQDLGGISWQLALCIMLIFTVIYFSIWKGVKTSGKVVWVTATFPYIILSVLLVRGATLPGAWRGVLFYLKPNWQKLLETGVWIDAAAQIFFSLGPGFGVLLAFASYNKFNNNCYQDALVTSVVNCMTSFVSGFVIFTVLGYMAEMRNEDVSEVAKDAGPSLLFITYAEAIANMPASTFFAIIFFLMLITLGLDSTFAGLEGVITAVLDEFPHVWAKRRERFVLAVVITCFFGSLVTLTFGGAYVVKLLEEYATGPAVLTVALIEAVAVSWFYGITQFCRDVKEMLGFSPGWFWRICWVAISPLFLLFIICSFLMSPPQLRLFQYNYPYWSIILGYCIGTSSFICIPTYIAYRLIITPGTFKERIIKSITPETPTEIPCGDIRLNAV

Row | SMILES | serotonin-uptake inhibition (in words) (Serotonin-uptake) | Percent Inhibition, Serotonin-uptake (Serotonin-uptake; Average: N = 2, Concentration 5,0E1) | Percent Inhibition, GABA B (GABA B) | Anxiolytic effect (healthy adult volunteers; N=2) | Duration of anxiolytic action (healthy adult volunteers; N=2) | Sustained elevation of mood (healthy adult volunteers; N=2) | Duration of sustained elevation of mood (healthy adult volunteers; N=2, individual volunteers) | Onset of action (healthy adult volunteers; N=2, individual volunteers)
1 | COc1ccc(C23C=CC(=O)CC2N(C)CC3)cc1OC (stereo not shown) [mesembranone] | highly potent serotonin-uptake inhibitors | – | – | – | – | – | – | –
2 | COc1ccc(C23CCC(=O)CC2N(C)CC3)cc1OC (single isomer, unassigned; (-)) [(-)-mesembrine, 3a-(3,4-dimethoxyphenyl)-octahydro-1-methyl-6H-indol-6-one] | highly potent serotonin-uptake inhibitor | 96,5% | -0,6% | noted by both | five hours to eight hours | noted by both | approximately eight; also recorded: eleven | 7 min and 12 min
3 | COc1ccc(C23CCC(O)CC2N(C)CC3)cc1OC (stereo not shown) [mesembranol] | highly potent serotonin-uptake inhibitors | – | – | – | – | – | – | –
